Reference: PMC7901699, “Challenging inflammatory process at molecular, cellular and in vivo levels via some new pyrazolyl thiazolones” (Journal of Enzyme Inhibition and Medicinal Chemistry, 2021)
Entries after “also recorded” stand apart in the source; their conditions may differ.

Experiments:
[1] = molecular target: T1, 15-LOX (Glycine max, UniProt P08170); experiment: In vitro 15-LOX inhibition assay (lipoxygenase inhibitor screening kit, Cayman); type: biochemical
T1 construct: purchased Cayman chemicals 760700
T1 sequence (P08170 1-839): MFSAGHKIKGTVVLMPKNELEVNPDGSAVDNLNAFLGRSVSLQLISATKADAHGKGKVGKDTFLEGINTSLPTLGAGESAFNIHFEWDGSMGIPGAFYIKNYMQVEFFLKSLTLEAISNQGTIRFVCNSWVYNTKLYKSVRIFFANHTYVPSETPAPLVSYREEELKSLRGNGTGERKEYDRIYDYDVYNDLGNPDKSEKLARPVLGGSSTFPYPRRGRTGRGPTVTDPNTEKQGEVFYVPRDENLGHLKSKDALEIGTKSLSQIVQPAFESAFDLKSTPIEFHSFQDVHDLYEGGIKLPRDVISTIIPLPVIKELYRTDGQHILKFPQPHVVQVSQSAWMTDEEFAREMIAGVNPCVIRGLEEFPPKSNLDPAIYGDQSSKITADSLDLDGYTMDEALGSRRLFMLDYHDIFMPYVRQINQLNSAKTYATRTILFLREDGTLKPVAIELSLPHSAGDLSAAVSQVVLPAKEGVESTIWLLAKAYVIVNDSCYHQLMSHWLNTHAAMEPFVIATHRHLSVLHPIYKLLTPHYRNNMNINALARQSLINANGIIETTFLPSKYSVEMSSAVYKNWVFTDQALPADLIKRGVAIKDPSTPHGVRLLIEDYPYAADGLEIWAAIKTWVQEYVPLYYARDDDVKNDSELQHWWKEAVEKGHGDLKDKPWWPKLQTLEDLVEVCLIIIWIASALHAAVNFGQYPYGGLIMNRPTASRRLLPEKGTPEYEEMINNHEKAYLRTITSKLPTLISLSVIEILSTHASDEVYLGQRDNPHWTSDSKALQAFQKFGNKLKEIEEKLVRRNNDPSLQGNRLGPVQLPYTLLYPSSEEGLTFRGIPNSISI
Procedure: (§1) Both assays were carried out in compliance with the manufacturer’s instructions and in accordance to prior studies[29]^,[33].
(§2) IC50 values (μM) and selectivity indices (SI) were calculated.

[2] = molecular target: T2, ovine COX-1 (Ovis aries, UniProt P05979); experiment: In vitro COX-1 inhibition assay (colorimetric COX inhibitor screening kit, Cayman); type: biochemical; settings: mean of three determinations
T2 construct: purchased Cayman Chemicals Inc. 560131
T2 sequence (P05979 25-600): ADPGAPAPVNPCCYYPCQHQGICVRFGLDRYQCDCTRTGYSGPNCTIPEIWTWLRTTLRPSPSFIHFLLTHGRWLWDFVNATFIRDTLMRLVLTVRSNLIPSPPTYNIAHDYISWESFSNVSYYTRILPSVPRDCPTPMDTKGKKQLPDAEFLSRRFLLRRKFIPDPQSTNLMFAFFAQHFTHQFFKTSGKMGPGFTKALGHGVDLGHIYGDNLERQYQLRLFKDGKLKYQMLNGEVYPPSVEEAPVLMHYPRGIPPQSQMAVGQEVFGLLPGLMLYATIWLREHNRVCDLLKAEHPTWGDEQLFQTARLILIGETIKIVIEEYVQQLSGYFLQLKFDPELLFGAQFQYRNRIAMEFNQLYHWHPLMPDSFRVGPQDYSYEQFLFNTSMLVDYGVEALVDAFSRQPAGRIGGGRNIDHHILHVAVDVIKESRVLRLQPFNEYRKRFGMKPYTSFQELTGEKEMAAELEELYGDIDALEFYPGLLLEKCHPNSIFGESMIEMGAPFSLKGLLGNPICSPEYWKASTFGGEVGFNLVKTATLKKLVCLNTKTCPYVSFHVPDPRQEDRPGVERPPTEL
Procedure: as §1, §2

[3] = tested on: formalin-induced rat paw oedema; experiment: Formalin-induced paw oedema test (acute inflammation model); type: in vivo, Wistar rats; settings: oral 5 mg/kg once daily for seven days; oedema 4 h after formalin; vs diclofenac sodium and celecoxib 5 mg/kg
Procedure: A freshly prepared 5% formalin solution (prepared from 37% formaldehyde and saline (Merck, Germany)) was used as a phlogistic agent. Test and reference compounds (5 mg/kg body weight) were dissolved in DMSO and given orally with gastric gavage once per day for seven consecutive days, whereas DMSO was administered to the control group. On the 8th day, the initial paw volume was determined by a Vernier calliper. Then, a subcutaneous injection of 40 μl formalin was introduced into the right hind paw of all groups under light ether anaesthesia. The paw volume was measured 4 h after the formalin injection and the oedema volume was calculated by the difference in paw volume before and 4 h after the formalin injection. The percentage inhibition of oedema (or % protection against inflammation) was calculated for each compound as previously reported[34]^,[35].

[4] = tested on: THP-1 cells; experiment: Monocyte-to-macrophage differentiation assay, M1 polarisation (PMA then LPS); type: cell-based, human
Procedure: Monocytes were cultured and differentiated as described previously. THP-1 cells (human acute monocytic leukaemia lineage, American Type Culture Collection, Manassas, VA) were seeded at a density of 20 × 10^5 cells/ml. A set of cells were exposed to 25 nM of phorbol myristate-acetate (PMA, Calbiochem, Darmstadt, Germany) for 24 h to drive differentiation. Another set was similarly treated with PMA followed by 100 ng/ml of lipopolysaccharide (LPS, invivogen, San Diego, CA, USA) for 72 h. After incubation, the supernatant was aspirated and the density of the adherent cells was estimated using MTS colorimetric cell viability kit (Abcam, Cambridge, UK). The inhibitory actions of different compounds on the differentiation process were evaluated by pre-incubation with different concentrations of each compound for 6 h. Cell viability after treatment was normalised to the reading after PMA exposure following a 6-h incubation with DMSO. All experiments were conducted in triplicates. A positive control for the effect of COX1/COX2 inhibition on monocyte-to-macrophage differentiation was obtained by treatment with diclofenac. IC50 values for each compound were determined by non-linear regression as the best fit values of the log [inhibitor] vs. response curve using GraphPad Prism software.

[5] = tested on: IL-1β; experiment: IL-1β protein expression by Western blotting; type: cell-based, human; settings: 100 μM compound; PMA 24 h then LPS 72 h; normalised to GAPDH
Procedure: THP-1 monocytes were exposed to 100 μM of the test compounds, activated with 25 nM PMA for 24 h followed by 100 ng/ml LPS for 72 h. At the end of the incubation period, cells were harvested, proteins were extracted and SDS-PAGE electrophoresis, blotting, and antibody probing were conducted as described previously. Primary rabbit polyclonal antibodies to IL-1β, procaspase-3, and GAPDH were obtained from Abcam (Cambridge, UK). Clarity Western ECL substrate (BioRad, Hercules, CA, USA) was used to obtain a chemiluminescence signal captured by a Chemidoc imaging system (BioRad, Hercules, CA, USA). Band density was estimated using ImageJ software (National Institutes of Health, Bethesda, MD) and normalised to the GAPDH band density as a loading control.

[6] = tested on: cotton pellet-induced granuloma; experiment: Cotton pellet-induced granuloma assay (chronic inflammation model); settings: oral 5 mg/kg daily; pellets excised on 8th day; vs diclofenac sodium and celecoxib

SMILES: COc1ccc(-c2nn(-c3ccccc3)cc2/C=C2\SC(N3CCCCC3)=NC2=O)cc1 [Compound 7, (Z)-5-((3-(4-methoxyphenyl)-1-phenyl-1H-pyrazol-4-yl)methylene)-2-(piperidin-1-yl)thiazol-4(5H)-one]
- 15-LOX inhibition, potency compared with quercetin (in words) [1]: almost equipotent to quercetin
- IC50 ([1]; mean of three determinations): 3.52 µM
- IC50 [2]: 10.3 µM
- Inhibition of formalin-induced rat paw oedema (in words) [3]: as effective as either diclofenac or celecoxib
- IC50 ([4]; Homo sapiens, THP-1, 6 h pre-incubation, PMA 25 nM 24 h then LPS 100 ng/ml 72 h, MTS, read-out: IC50 inhibition of THP-1 monocyte differentiation into M1 macrophages): 15 µM
- Inhibition of THP-1 differentiation into M1 macrophages (in words) ([4]; PMA then LPS, diclofenac as reference): potent inhibitory effects on monocyte-to-macrophage differentiation; also recorded: higher potency compared to diclofenac
- IL-1β expression in PMA/LPS-challenged THP-1 [5]: attenuating IL-1β production
- Inhibition of cotton pellet granuloma weight (in words) [6]: only superior to celecoxib
